The values that follow come from patent US8569573B2 (priority 2007, dated 2013).

Each structure is given as a SMILES string.

For one data set, the system named is CYP1A1 and 1A2. Kind of data set: Ethoxyresorufin-O-deethylase (EROD) activity on cultured hepatocytes from humanized FRG mouse liver. It is filed as cell-based, human. Particulars: humanized mouse liver cells, FIG. 6a.
The test system of data set [1] is human drug metabolism genes. Kind of data set: Induction of mRNAs involved in drug metabolism in cultured hepatocytes from chimeric mice (real-time PCR). An excerpt:
(§1) The basal expression and induction of human liver specific genes in chimeric mice was examined. […] Primers, obtained from Applied Biosystems, were specific for human CYP1A1 (Hs00153120_m1), CYP1A2 (Hs00167927_m1), CYP3A4 (Hs00430021_m1), CYP3A7 (Hs00426361_a1), CYP2B6 (Hs00167937_g1), CYP2D6 (Hs00164385_a1), Multidrug resistance associated protein MRP2 (Hs00166123_m1), Bile Salt export Pump BSEP, (Hs00184829_m1), CAR (Hs00231959_m1) Albumin (Hs00609411_m1), HNF4α (Hs00230853_m1), Cyclophillin (Hs99999904_m1) and mouse actin (Ma00607939_s1).
(§2) Cultures of isolated hepatocytes were established and exposed to prototypical inducers of the cytochrome P450 genes. […] In addition to the mRNA expression levels of human drug metabolism genes, the enzymatic activity of the human CYP1A and 3A family members were measured. Ethoxyresorufin-O-deethylase activity (EROD) is known to be mediated by CYP1A1 and 1A2 in human liver.
For orientation: In qPCR the cycle at which signal appears reflects the starting amount.

Another data set deals with FRG mice. Kind of data set: Maintenance of FRG mice with NTBC in drinking water and NTBC withdrawal. It is filed as in vivo, mouse. The source says: Several strains of immune-deficient Fah knockout mice were generated. Crossing the Fah mutation onto nude, nod/scid or Rag1^−/− backgrounds was unsuccessful. To generate an immunodeficient Fah^−/− mouse strain completely lacking T cells, B cells and NK cells, but without a DNA repair defect, Fah^−/−/Rag2^−/−/Il2rg^−/− (FRG) mice were generated. Male Fah^−/−129S4 mice (Grompe et al. Genes Dev. 7:2298-2307, 1993) were crossed with female Rag2^−/−/Il2rg^−/− mice (Taconic). All animals were maintained with drinking water containing 2-(2-nitro-4-trifluoro-methyl-benzoyl)-1,3 cyclohexanedione (NTBC) at a concentration of 1.6 mg/L (Grompe et al. Nat. Genet. 10:453-460, 1995). To confirm the genotypes of each animal, PCR-based genotyping was carried out on 200 ng genomic DNA isolated from toe tissue (Grompe et al. Genes Dev. 7:2298-2307, 1993; Traggiai et al. Science 304:104-107, 2004).

The subject of a further data set is CYP3A4. Put plainly: Conversion of testosterone to 6-beta-hydroxyltestosterone in cultured hepatocytes from humanized FRG mouse liver. Particulars: cultured hepatocytes from repopulated FRG livers, FIG. 6b.
Description: as §1, §2

Regarding `O=c1cc(-c2ccccc2)oc2ccc3ccccc3c12` [BNF, beta-naphthoflavone], the “EROD activity after prior exposure to inducer” value in the data set on CYP1A1 and 1A2 is “specifically and robustly induced”. Further, in data set [1] (cultured hepatocytes from chimeric mice, FIG. 7), the “pattern of genes induced” value was “as expected from normal human cells”.
Consider `O=C1CCCC(=O)C1C(=O)c1ccc(C(F)(F)F)cc1[N+](=O)[O-]` [NTBC, 2-(2-nitro-4-trifluoro-methyl-benzoyl)-1,3 cyclohexanedione], for which the “time to death after NTBC withdrawal” value in the data set on FRG mice (FRG mice, gradual hepatocellular injury after withdrawal) is 4-8 weeks. Moreover, in the data set on FRG mice (NTBC continuously in drinking water, 1.6 mg/L), the “growth and fertility of FRG mice” value was “grew well and were fully fertile”.
Turning to `CCC1(c2ccccc2)C(=O)NC(=O)NC1=O` [PB, phenobarbital], in the data set with CYP3A4, the “conversion of testosterone to 6-beta-hydroxyltestosterone after prior exposure to inducer” value is “specifically induced”. Further, in data set [1] (relative to non-induced cultures, FIG. 7b), the “induction of CYP3A4 mRNA” value is “even more striking than at the enzyme level”.
